Where a name gives a salt, the structure may show the parent alone. Read-outs that look alike come from different tables or passages of the source.
Columns and labels:
[1] = test system: OTC; assay: OTC expression modulated by compounds (OTC/Geo Mean of HKs, DMSO = 1); type: cell-based, human; conditions: OTC expression
Method: Analysis of the fold changes in expression as measured by qRT-PCR were performed using the technique below. The control was DMSO, and the treatment was the selected compound (CPD). The internal control was GAPDH or B-Actin, and the gene of interest is the target. First, the averages of the 4 conditions were calculated for normalization: DMSO:GAPDH, DMSO:Target, CPD: GAPDH, and CPD:Target. Next, the ΔCT of both control and treatment were calculated to normalize to internal control (GAPDH) using (DMSO:Target)−(DMSO:GAPDH)=ΔCT control and (CPD:Target)−(CPD: GAPDH)=ΔCT experimental. Then, the ΔΔCT was calculated by ΔCT experimental−ΔCT control.

[2] = test system: NAGS
[3] = test system: ARG1; assay: RNA-seq, ARG1 expression in compound-treated primary human hepatocytes; type: cell-based; conditions: RNA-seq, primary human hepatocytes, compounds that significantly increase ARG1 expression
[4] = test system: multiple urea cycle-related genes; assay: RNA-seq, compounds that modulate multiple urea cycle-related genes; type: cell-based; conditions: primary human hepatocytes; for Up-regulated Genes: urea cycle-related genes significantly increased by the compound
[5] = test system: CPS1; assay: RNA-seq, CPS1 expression in compound-treated primary human hepatocytes; type: cell-based
[6] = test system: OTC; assay: RNA-seq, OTC expression in compound-treated primary human hepatocytes; type: cell-based
[7] = compound at 10 uM final concentration
[8] = RNA-seq, primary human hepatocytes, compounds that significantly increase NAGS expression

CC(C)[C@H](O)C(=O)N[C@@H](C)C(=O)N[C@@H]1C(=O)N(C)CCc2ccccc21 [Semagacestat]
Max Value (OTC/Geo Mean of HKs; DMSO = 1) [1, 7]: 1.5

N#CC(c1ccnc(OCc2ccc(CN3CCOCC3)cc2)n1)c1nc2ccccc2s1 (stereo not shown) [AS602801 (Bentamapimod), Bentamapimod]
Max Value (OTC/Geo Mean of HKs; DMSO = 1) [1, 7]: 2.75

O=C(Nc1nc2cccc(-c3ccc(CN4CCS(=O)(=O)CC4)cc3)n2n1)C1CC1 [GLPG0634]
Max Value (OTC/Geo Mean of HKs; DMSO = 1) [1, 7]: 1.54

Cc1cc(Nc2nc(N[C@@H](C)c3ncc(F)cn3)ncc2Cl)[nH]n1 [AZD1480]
Max Value (OTC/Geo Mean of HKs; DMSO = 1) [1, 7]: 1.46

COCCn1c2c([n+](Cc3cnccn3)c1C)C(=O)c1ccccc1C2=O [YM155 (Sepantronium Bromide), Sepantronium Bromide]
Max Value (OTC/Geo Mean of HKs; DMSO = 1) [1, 7]: 3.16

COc1cc2nccc(Oc3ccc(NC(=O)Nc4cc(C)on4)c(Cl)c3)c2cc1OC [Tivozanib]
Max Value (OTC/Geo Mean of HKs; DMSO = 1) [1, 7]: 1.57

CCN(CC)CCNC(=O)c1c(C)[nH]c(/C=C2\C(=O)Nc3ccc(F)cc32)c1C [Sunitinib]
Max Value (OTC/Geo Mean of HKs; DMSO = 1) [1, 7]: 2.62

C=CCNc1c(O)cc2c(O)c1C[C@@H](C)C[C@H](OC)[C@H](O)[C@@H](C)/C=C(\C)[C@H](OC(N)=O)[C@@H](OC)/C=C\C=C(/C)C(=O)N2 [Retaspimycin Hydrochloride]
Max Value (OTC/Geo Mean of HKs; DMSO = 1) ([1]; compound tested at 1 uM): 1.48

Cn1c(=O)c(Oc2ccc(F)cc2F)cc2cnc(NC(CCO)CCO)nc21 [Pamapimod]
Max Value (OTC/Geo Mean of HKs; DMSO = 1) [1, 7]: 1.73

c1cc(-c2cnn3cc(-c4ccc(OCCN5CCCCC5)cc4)cnc23)ccn1 [Dorsomorphin]
Max Value (OTC/Geo Mean of HKs; DMSO = 1) [1, 7]: 4.78

[H]/N=C(/N)N/C(=N/[H])NCCc1ccccc1 [Phenformin]
NAGS expression, Fold change (Log 2) vs untreated [2]: 1.38 Log 2 | ARG1 expression, Fold change (Log 2) vs untreated [3]: 1.14 Log 2

CCS(=O)(=O)c1cccc(-c2cc(C(=O)NC3CCN(C)CC3)c(C)c3[nH]c4ncc(C)cc4c23)c1 [TAK-901]
Max Value (OTC/Geo Mean of HKs; DMSO = 1) [1, 7]: 2.9

COc1cc2c(Oc3ccc(NC(=O)C4(C(=O)Nc5ccc(F)cc5)CC4)cc3F)ccnc2cc1OCCCN1CCOCC1 [Foretinib (GSK1363089), Foretinib]
Max Value (OTC/Geo Mean of HKs; DMSO = 1) [1, 7]: 4.09

O=C(N[C@H]1CN2CCC1CC2)c1cc2cccc(Cl)c2s1 [EVP-6124 (hydrochloride) (encenicline), encenicline]
NAGS expression, Fold change (Log 2) vs untreated [2, 8]: 0.75 Log 2

N[C@@]1(C(=O)O)CS(=O)(=O)[C@H]2[C@H](C(=O)O)[C@H]21 [Pomaglumetad]
Max Value (OTC/Geo Mean of HKs; DMSO = 1) [1, 7]: 1.49

CN(c1ncccc1CNc1nc(Nc2ccc3c(c2)CC(=O)N3)ncc1C(F)(F)F)S(C)(=O)=O [PF-00562271]
Max Value (OTC/Geo Mean of HKs; DMSO = 1) [1, 7]: 3.3

FGF: Fibroblast Growth Factor-acidic (FGF-1); FGFR activator
number of urea cycle genes whose expression was significantly up-regulated [4]: three | Up-regulated Genes [4]: CPS1, OTC, ARG1 | Fold change (Log 2) vs untreated [5]: 1.72 Log 2 | Fold change (Log 2) vs untreated [6]: 0.56 Log 2 | ARG1 expression, Fold change (Log 2) vs untreated [3]: 1.24 Log 2

NS(=O)(=O)C#Cc1ccccc1 [Pifithrin-μ]
number of urea cycle genes whose expression was significantly up-regulated [4]: three | Up-regulated Genes [4]: OTC, NAGS, ARG1 | NAGS expression, Fold change (Log 2) vs untreated [2, 8]: 1.18 Log 2 | Fold change (Log 2) vs untreated [6]: 0.79 Log 2

CCS(=O)(=O)N1CC(CC#N)(n2cc(-c3ncnc4[nH]ccc34)cn2)C1 [Baricitinib]
Max Value (OTC/Geo Mean of HKs; DMSO = 1) [1, 7]: 1.66

O=C(NCCCNc1nc(Nc2cccc(CN3CCOCC3)c2)ncc1C1CC1)C1CCC1 [MRT67307]
Max Value (OTC/Geo Mean of HKs; DMSO = 1) [1, 7]: 1.68

CC1(C)CC[C@]2(C(=O)O)CC[C@]3(C)[C@H](C(=O)C=C4[C@@]5(C)C=C(C#N)C(=O)C(C)(C)[C@@H]5CC[C@]43C)[C@@H]2C1 [Bardoxolone]
Max Value (OTC/Geo Mean of HKs; DMSO = 1) [1, 7]: 2.76

CC(C)c1cc(CNc2nc(Nc3cc(C4CC4)[nH]n3)cc(N3CCN(C)CC3)n2)on1 [XL228]
Max Value (OTC/Geo Mean of HKs; DMSO = 1) [1, 7]: 2.92

N#CC(C#N)=NNc1cccc(Cl)c1 [CCCP]
Max Value (OTC/Geo Mean of HKs; DMSO = 1) [1, 7]: 4.06

CN1CCN(CCCN2c3ccccc3Sc3ccc(C(F)(F)F)cc32)CC1 [TFP, Trifluoperazine]
NAGS expression, Fold change (Log 2) vs untreated [2, 8]: 0.58 Log 2

CNC(=O)c1cc(Oc2ccc(NC(=O)Nc3ccc(Cl)c(C(F)(F)F)c3)c(F)c2)ccn1 [Regorafenib]
Max Value (OTC/Geo Mean of HKs; DMSO = 1) [1, 7]: 1.54 | Max Value (OTC/Geo Mean of HKs; DMSO = 1) ([1]; compound at 10 uM final concentration, listed as Regorafenib (BAY 73-4506)): 2.07

Reference: US20200316038A1, “METHODS AND COMPOSITIONS FOR TREATING UREA CYCLE DISORDERS, IN PARTICULAR OTC DEFICIENCY” (CAMP4 THERAPEUTICS CORPORATION, priority 2017, published 2020)
